Source: patent publication US12371454B2, “Cyclic peptide compound having Kras inhibitory action” (priority 2019, dated 2025)
Starred links: 1 amine or outer side, 2 acyl side, 3 side chain; linkers in the order of their positions; H or OH if unused. Positions of bridges follow the written chain, without caps; N, C: chain ends. Non-standard residues stand in square brackets, D forms with d. Residues, ends and D or L forms follow the SMILES beside them. *: point of attachment. hPhe(3-Cl-4-CF3) = N[C@@H](CCc1ccc(C(F)(F)F)c(Cl)c1)C(=O)O; NPrAsp = CCCN([C@@H](CC(=O)[*:3])C(=O)[*:2])[*:1]; 3Oxa8azabicyclo(3.2.1)octane = C1CC2COCC1N2*; NMeAbu(4,4,4-F3) = CN[C@@H](CC(F)(F)F)C(=O)O; NMePhe(3-Me) = CN[C@@H](Cc1cccc(C)c1)C(=O)O; NMePhe(4-Me) = CN[C@@H](Cc1ccc(C)cc1)C(=O)O; NMedβ3hAla = C[C@H](CC(=O)[*:2])N(C)[*:1]; NMeAla(cPent) = CN[C@@H](CC1CCCC1)C(=O)O; NMeGly(cPent) = CN[C@H](C(=O)O)C1CCCC1; NMeCha = CN[C@@H](CC1CCCCC1)C(=O)O; NMeAhp(2) = CCCCC[C@H](NC)C(=O)O; NMeChg = CN[C@H](C(=O)O)C1CCCCC1; NMeD = CN[C@@H](CC(=O)O)C(=O)O; NMeL = CN[C@@H](CC(C)C)C(=O)O; NMeS = CN[C@@H](CO)C(=O)O; Morpholide = C1CN(*)CCO1; NMeA = CN[C@@H](C)C(=O)O; Piperidide = C1CCN(*)CC1; Pyrrolidide = C1CCN(*)C1; Ac5c = NC1(C(=O)O)CCCC1; Aze = O=C(O)[C@@H]1CCN1; Sar = CNCC(=O)O; Propyl = CCC*

Legend:
[1] = target: T1, Kras and SOS1 (biotin-tagged human Kras loaded with GDP, His-tagged human SOS1) (Homo sapiens, UniProt P01116, G12D); test: Protein-protein interaction inhibition between Kras and SOS1 (KrasGl2D-SOS PPI) using AlphaScreen; assay type: binding; conditions: AlphaScreen; biotin-tagged human Kras loaded with GDP, His-tagged human SOS1; read-out: KRAS G12D-SOS PPI IC50
T1 construct: made in house; host or cells: E. coli (stated for Kras only)
Method in brief: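 Read-out is acceptor-bead light at 520-620 nm, arising when 680 nm-irradiated nickel donor beads pass singlet oxygen to streptavidin acceptors. The bead pair links His-tagged SOS1 with biotin-tagged, GDP-bound Kras from E. coli.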

[2] = test system: Human pancreatic cancer cell line AsPC-1; test: Measurement of AsPC-1 cell growth inhibition (AsPC-1 CGI); assay type: cell-based; conditions: 96 h
Method in brief: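 AsPC-1 cells in 15% FBS RPMI-1640 were exposed to test compound for 96 hours at 37° C, with CellTiter-Glo as endpoint.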

T1 sequence (P01116 1-188 isoform P01116-2 G12D): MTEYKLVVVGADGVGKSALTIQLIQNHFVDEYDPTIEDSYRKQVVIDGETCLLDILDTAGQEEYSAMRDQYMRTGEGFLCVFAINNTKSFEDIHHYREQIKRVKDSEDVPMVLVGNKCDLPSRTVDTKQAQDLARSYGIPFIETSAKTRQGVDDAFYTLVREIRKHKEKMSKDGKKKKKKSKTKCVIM

`CCCN1C(=O)[C@H](C2CCCC2)N(C)C(=O)C2(CCCC2)NC(=O)[C@@H]2CCCN2C(=O)[C@H](CCc2ccc(C(F)(F)F)c(Cl)c2)NC(=O)CN(C)C(=O)[C@H](CC2CCCCC2)N(C)C(=O)CN(C)C(=O)CN(C)C(=O)[C@H]([C@@H](C)CC)NC(=O)[C@H](C)N(C)C(=O)C[C@H]1C(=O)N1CCCCC1` [Compound 56] ([NMeA]I[Sar][Sar][NMeCha][Sar][hPhe(3-Cl-4-CF3)]P[Ac5c][NMeGly(cPent)][NPrAsp]-Piperidide; lactam N-11) was tested. Which IC50 [1] did it give?
Its IC50 is 2.3 nM.

What about the IC50 [2] of the same molecule?
The IC50 was 20 to 50 nM.

Which IC50 [1] does the source give for `CC[C@H](C)[C@@H]1NC(=O)[C@H](CC2CCCCC2)N(C)C(=O)C[C@@H](C(=O)N2CCCCC2)N(C)C(=O)[C@H](C2CCCCC2)N(C)C(=O)C2(CCCC2)NC(=O)[C@@H]2CCCN2C(=O)[C@H](CCc2ccc(C(F)(F)F)c(Cl)c2)NC(=O)CN(C)C(=O)[C@H](CC2CCCCC2)N(C)C(=O)CN(C)C(=O)CN(C)C1=O` [Compound 983] ([NMeCha]I[Sar][Sar][NMeCha][Sar][hPhe(3-Cl-4-CF3)]P[Ac5c][NMeChg][NMeD]-Piperidide; lactam N-11) here?
The IC50 was 1.8 nM.

And the IC50 [2]?
The IC50 was 100 to 500 nM.

For `CCCOC[C@H]1C(=O)N(C)CC(=O)N[C@@H](CCc2ccc(C(F)(F)F)c(Cl)c2)C(=O)N2CCC[C@H]2C(=O)NC2(CCCC2)C(=O)N(C)[C@@H](C2CCCCC2)C(=O)N(C)[C@H](C(=O)N2C3CCC2COC3)CC(=O)N(C)[C@@H](CC(F)(F)F)C(=O)N[C@@H]([C@@H](C)CC)C(=O)N(C)CC(=O)N(C)CC(=O)N1C` [Compound 943] ([NMeAbu(4,4,4-F3)]I[Sar][Sar][NMeS](Propyl)[Sar][hPhe(3-Cl-4-CF3)]P[Ac5c][NMeChg][NMeD]-{3Oxa8azabicyclo(3.2.1)octane}; lactam N-11), which IC50 [1] is on record?
Its IC50 is 0.83 nM.

And the IC50 [2]?
Its IC50 is 100 to 500 nM.

How did the IC50 [1] turn out when `CC[C@H](C)[C@@H]1NC(=O)[C@H](CC(C)C)N(C)C(=O)C[C@@H](C)N(C)C(=O)[C@H](C2CCCC2)N(C)C(=O)C2(CCCC2)NC(=O)[C@@H]2CCCN2C(=O)[C@H](CCc2ccc(C(F)(F)F)c(Cl)c2)NC(=O)CN(C)C(=O)[C@H](Cc2ccc(C)cc2)N(C)C(=O)CN(C)C(=O)CN(C)C1=O` [Compound 1694] (cyclo([Ac5c][NMeGly(cPent)][NMedβ3hAla][NMeL]I[Sar][Sar][NMePhe(4-Me)][Sar][hPhe(3-Cl-4-CF3)]P)) was run?
Its IC50 is 0.55 nM.

And the IC50 [2]?
The IC50 was 20 to 50 nM.

Which IC50 [1] does the source give for `CCCCC[C@H]1C(=O)N[C@@H]([C@@H](C)CC)C(=O)N[C@@H](C)C(=O)N2CC[C@H]2C(=O)N(C)[C@@H](C2CCCC2)C(=O)N(C)CC(=O)N[C@@H](CCc2ccc(C(F)(F)F)c(Cl)c2)C(=O)N2CCC[C@H]2C(=O)NC2(CCCC2)C(=O)N(C)[C@@H](C2CCCC2)C(=O)N(C)[C@H](C(=O)N2CCOCC2)CC(=O)N1C` [Compound 11] ([NMeAhp(2)]IA[Aze][NMeGly(cPent)][Sar][hPhe(3-Cl-4-CF3)]P[Ac5c][NMeGly(cPent)][NMeD]-Morpholide; lactam N-11) here?
Its IC50 is 1.5 nM.

What about the IC50 [2] of the same molecule?
Its IC50 is 50 to 100 nM.

What does the source list for `CC[C@H](C)[C@@H]1NC(=O)[C@H](CC(C)C)N(C)C(=O)C[C@@H](C(=O)N2CCCC2)N(C)C(=O)[C@H](C2CCCCC2)N(C)C(=O)C2(CCCC2)NC(=O)[C@@H]2CCCN2C(=O)[C@H](CCc2ccc(C(F)(F)F)c(Cl)c2)NC(=O)CN(C)C(=O)[C@H](CC2CCCC2)N(C)C(=O)CN(C)C(=O)CN(C)C1=O` [Compound 1969] ([NMeL]I[Sar][Sar][NMeAla(cPent)][Sar][hPhe(3-Cl-4-CF3)]P[Ac5c][NMeChg][NMeD]-Pyrrolidide; lactam N-11)?
IC50 [1]: 0.61 nM; IC50 [2]: 50 to 100 nM

Which IC50 [1] does the source give for `CC[C@H](C)[C@@H]1NC(=O)[C@H](CC(C)C)N(C)C(=O)C[C@@H](C(=O)N(C)C)N(C)C(=O)[C@H](C2CCCC2)N(C)C(=O)C2(CCCC2)NC(=O)[C@H](Cc2cccc(C)c2)N(C)C(=O)[C@H](CCc2ccc(C(F)(F)F)c(Cl)c2)NC(=O)CN(C)C(=O)[C@H](CC2CCCCC2)N(C)C(=O)[C@@H]2CCN2C(=O)[C@H](C)N(C)C1=O` [Compound 449] ([NMeL]I[NMeA][Aze][NMeCha][Sar][hPhe(3-Cl-4-CF3)][NMePhe(3-Me)][Ac5c][NMeGly(cPent)][NMeD]-NMe2; lactam N-11) here?
Its IC50 is 30 nM.

What about the IC50 [2] of the same molecule?
Its IC50 is 100 to 500 nM.

Which IC50 [1] does the source give for `CC[C@H](C)[C@@H]1NC(=O)[C@H](CC(F)(F)F)N(C)C(=O)C[C@@H](C(=O)N2CCCCC2)N(C)C(=O)[C@H](C2CCCCC2)N(C)C(=O)C2(CCCC2)NC(=O)[C@@H]2CCCN2C(=O)[C@H](CCc2ccc(C(F)(F)F)c(Cl)c2)NC(=O)CN(C)C(=O)[C@H](CC2CCCCC2)N(C)C(=O)CN(C)C(=O)CN(C)C1=O` [Compound 1701] ([NMeAbu(4,4,4-F3)]I[Sar][Sar][NMeCha][Sar][hPhe(3-Cl-4-CF3)]P[Ac5c][NMeChg][NMeD]-Piperidide; lactam N-11) here?
Its IC50 is 0.75 nM.

What about the IC50 [2] of the same molecule?
The IC50 was 20 to 50 nM.
